Results as given in article PMC3759295 (Toxicology letters, 2013).
Where “and” joins values, the source holds several entries; their conditions need not be identical. Equal values may be shown once.

What was measured:
CYP1A1 [1] = settings: read-out: IC50, inhibition of CYP1A1; aglycons (anthocyanidins); ref Kamenickova et al. 2013; cited from earlier work
AhR = target: T1, AhR (Homo sapiens, UniProt P35869); experiment: Gene reporter assay, transcriptional activity of AhR in AZ-AHR reporter cells; settings: 10 µM and 50 µM, 24 h
T1 sequence (P35869 11-848): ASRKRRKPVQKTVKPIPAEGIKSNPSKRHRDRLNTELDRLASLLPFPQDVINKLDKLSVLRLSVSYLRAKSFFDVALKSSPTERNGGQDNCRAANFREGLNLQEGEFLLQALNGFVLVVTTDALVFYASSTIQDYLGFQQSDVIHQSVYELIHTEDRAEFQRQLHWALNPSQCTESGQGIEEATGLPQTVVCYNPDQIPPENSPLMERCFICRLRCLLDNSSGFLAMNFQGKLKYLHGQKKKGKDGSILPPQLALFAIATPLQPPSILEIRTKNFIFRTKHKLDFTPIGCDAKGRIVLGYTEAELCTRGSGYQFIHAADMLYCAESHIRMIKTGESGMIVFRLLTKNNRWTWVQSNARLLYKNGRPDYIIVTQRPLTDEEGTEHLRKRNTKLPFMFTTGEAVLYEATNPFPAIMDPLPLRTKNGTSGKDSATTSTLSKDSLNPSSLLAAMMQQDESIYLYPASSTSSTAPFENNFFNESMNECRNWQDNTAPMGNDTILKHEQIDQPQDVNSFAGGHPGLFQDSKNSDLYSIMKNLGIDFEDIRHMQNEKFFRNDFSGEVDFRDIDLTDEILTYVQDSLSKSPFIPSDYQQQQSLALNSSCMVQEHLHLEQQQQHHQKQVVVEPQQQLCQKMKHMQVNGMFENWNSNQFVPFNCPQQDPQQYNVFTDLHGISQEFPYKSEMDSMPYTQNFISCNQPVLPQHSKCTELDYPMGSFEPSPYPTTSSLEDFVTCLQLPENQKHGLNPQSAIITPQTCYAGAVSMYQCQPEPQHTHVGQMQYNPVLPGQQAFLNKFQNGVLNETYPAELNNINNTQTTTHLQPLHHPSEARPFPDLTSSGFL

[2] = tested on: CYP1A1 mRNA in primary human hepatocytes; experiment: CYP1A1 mRNA expression in primary human hepatocytes; type: cell-based; settings: for CYP1A1 mRNA fold induction over the vehicle-treated cells, LH48: hepatocyte culture LH48 (so in the source), 50 µM
[3] = tested on: CYP1A1 mRNA in HepG2 cells; experiment: CYP1A1 mRNA expression in HepG2 cells; settings: HepG2, TCDD 5 nM, 24 h, two independent experiments
[4] = tested on: CYP1A1 protein in primary human hepatocytes; experiment: CYP1A1 protein in primary human hepatocytes
[5] = tested on: CYP1A1 mRNA in LS174T cells; experiment: CYP1A1 mRNA expression in LS174T cells; settings: TCDD 5 nM, 24 h, two independent experiments
[6] = tested on: CYP1A1 protein in HepG2 cells; experiment: CYP1A1 protein in HepG2 cells; type: cell-based, human; settings: HepG2, TCDD 5 nM, 48 h
[7] = tested on: CYP1A1 protein in LS174T cells; experiment: CYP1A1 protein in LS174T cells; type: cell-based, human; settings: TCDD 5 nM, 48 h
CYP1A1 [8] = target: T2, CYP1A1 (Homo sapiens, UniProt P04798); experiment: Enzyme activity of CYP1A1 in human liver microsomes; type: biochemical; settings: 100 µM
T2 sequence (P04798 1-512): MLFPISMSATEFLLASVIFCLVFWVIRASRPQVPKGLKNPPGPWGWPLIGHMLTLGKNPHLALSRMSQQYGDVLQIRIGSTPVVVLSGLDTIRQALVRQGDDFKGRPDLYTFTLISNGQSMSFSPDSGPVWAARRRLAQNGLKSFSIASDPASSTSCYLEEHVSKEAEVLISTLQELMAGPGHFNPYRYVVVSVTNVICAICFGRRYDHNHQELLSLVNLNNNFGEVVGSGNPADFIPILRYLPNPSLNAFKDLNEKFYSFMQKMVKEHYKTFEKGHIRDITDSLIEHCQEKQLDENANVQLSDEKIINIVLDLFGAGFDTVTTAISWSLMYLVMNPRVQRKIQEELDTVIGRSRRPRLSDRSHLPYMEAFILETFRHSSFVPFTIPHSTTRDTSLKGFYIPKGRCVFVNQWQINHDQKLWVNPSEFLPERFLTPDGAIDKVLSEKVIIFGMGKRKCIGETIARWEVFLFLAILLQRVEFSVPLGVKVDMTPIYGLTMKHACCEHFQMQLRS

CYP1A1 mRNA = CYP1A1 mRNA expression in primary human hepatocytes; type: cell-based; settings: human
[9] = hepatocyte culture LH45, 10 µM, 24 h
[10] = hepatocyte culture LH45, 50 µM, 24 h
[11] = hepatocyte culture LH46, 10 µM, 24 h
[12] = hepatocyte culture LH46, 50 µM, 24 h
[13] = hepatocyte culture LH47, 50 µM, 24 h
[14] = primary human hepatocytes (culture LH48 as printed)
[15] = male, primary human hepatocytes (culture LH45)
[16] = male, primary human hepatocytes (culture LH46)
[17] = male, primary human hepatocytes (culture LH47)

**Q.** With `Oc1cc(O)c2cc(O)c(-c3cc(O)c(O)c(O)c3)[o+]c2c1` [delphinidin] as the compound, how does the IC50 (CYP1A1 [1]) read?
**A.** 77 µM

**Q.** With `Oc1cc(O)c2c(c1)O[C@@]1(c3ccc(O)c(O)c3)Oc3cc(O)c4c(c3[C@@H]2[C@H]1O)O[C@H](c1ccc(O)c(O)c1)[C@H](O)C4` [PAC, proanthocyanidin A2] as the compound, how does the “induction of luciferase activity” value (AhR) read?
**A.** No significant induction

**Q.** With `Clc1cc2c(cc1Cl)Oc1cc(Cl)c(Cl)cc1O2` [TCDD, 2,3,7,8-Tetrachlorodibenzo-p-dioxin] as the compound, how does the “CYP1A1 mRNA fold induction over the vehicle-treated cells, LH45” value (“CYP1A1 mRNA fold induction … LH45” below) ([2]; hepatocyte culture LH45, TCDD 5 nM, 24 h) read?
**A.** 125.4 ± 17.7 fold

**Q.** And the “CYP1A1 mRNA fold induction over the vehicle-treated cells, LH47” value (“CYP1A1 mRNA fold induction … LH47” for short) ([2]; hepatocyte culture LH47, TCDD 5 nM, 24 h)?
**A.** 104.7 ± 13.4 fold

**Q.** What about the “magnitude of induction of CYP1A1 mRNA, LH49” value ([2]; hepatocyte culture LH49, TCDD, 24 h) of the same compound?
**A.** 71 fold

**Q.** And the “induction of CYP1A1 mRNA” value [3]?
**A.** 322 fold and 216 fold

**Q.** What about the “levels of CYP1A1 protein” value ([4]; four human hepatocytes cultures, TCDD 5 nM, 48 h) of the same compound?
**A.** strongly induced

**Q.** And the “induction of CYP1A1 mRNA” value [5]?
**A.** 1003 fold and 724 fold

**Q.** What about the “levels of CYP1A1 protein” value [6] of the same compound?
**A.** strongly induced

**Q.** And the “levels of CYP1A1 protein” value [7]?
**A.** strongly induced

**Q.** For `Oc1ccc(-c2[o+]c3cc(O)cc(O)c3cc2O)cc1` [pelargonidin], which IC50 (CYP1A1 [1]) is on record?
**A.** 33 µM

**Q.** Which “CYP1A1 mRNA fold induction … LH45” value [2, 9] does the source give for `CC1OC(OCC2OC(Oc3cc4c(O)cc(O)cc4[o+]c3-c3ccc(O)cc3)C(O)C(O)C2O)C(O)C(O)C1O.[Cl-]` (stereo not drawn) [PEL-2, pelargonidin-3-O-rutinoside chloride] here?
**A.** 0.87 ± 0.04 fold

**Q.** And the “CYP1A1 mRNA fold induction … LH45” value [2, 10]?
**A.** 0.24 ± 0.01 fold

**Q.** And the “CYP1A1 mRNA fold induction over the vehicle-treated cells, LH46” value (shortened to “CYP1A1 mRNA fold induction … LH46”) [2, 11]?
**A.** 2.66 ± 0.20 fold

**Q.** And the “CYP1A1 mRNA fold induction … LH46” value [2, 12]?
**A.** 2.39 ± 0.22 fold

**Q.** And the “CYP1A1 mRNA fold induction … LH47” value [2, 13]?
**A.** 0.61 ± 0.01 fold

**Q.** What about the “CYP1A1 mRNA fold induction over the vehicle-treated cells, LH48” value (from here on “CYP1A1 mRNA fold induction … LH48”) ([2]; 24 h) of the same compound?
**A.** 0.60 ± 0.17 fold

**Q.** What about the “induction of CYP1A1 mRNA” value ([2]; hepatocytes) of the same compound?
**A.** Neither compound induced

**Q.** And the “CYP1A1 activity remaining, % of the initial activity (without anthocyanin)” value (CYP1A1 [8])?
**A.** 79%

**Q.** And the “induction of CYP1A1 protein” value ([4]; four different primary human hepatocytes cultures)?
**A.** Neither compound induced

**Q.** And the “induction of luciferase activity” value (AhR)?
**A.** concentration-dependent induction

**Q.** With `COc1cc(-c2[o+]c3cc(O)cc(O)c3cc2O[C@@H]2O[C@H](CO)[C@@H](O)[C@H](O)[C@H]2O)cc(OC)c1O` [MAL-1, malvidin-3-O-glucoside chloride] as the compound, how does the fold induction at 24 h, 50 µM (CYP1A1 mRNA; [14]) read?
**A.** 0.29 ± 0.03

**Q.** And the fold induction at 24 h, 10 µM (CYP1A1 mRNA; [15])?
**A.** 1.13 ± 0.35

**Q.** What about the fold induction at 24 h, 50 µM (CYP1A1 mRNA; [15]) of the same compound?
**A.** 0.93 ± 0.11

**Q.** And the fold induction at 24 h, 10 µM (CYP1A1 mRNA; [16])?
**A.** 2.34 ± 0.25

**Q.** And the fold induction at 24 h, 50 µM (CYP1A1 mRNA; [16])?
**A.** 1.56 ± 0.23

**Q.** What about the fold induction at 24 h, 50 µM (CYP1A1 mRNA; [17]) of the same compound?
**A.** 0.14 ± 0.13

**Q.** Which fold induction at 24 h, 50 µM (CYP1A1 mRNA; [14]) does the source give for `OC[C@H]1O[C@@H](Oc2cc3c(O)cc(O)cc3[o+]c2-c2ccc(O)c(O)c2)[C@H](O)[C@@H](O)[C@@H]1O` [CYA-1, cyanidin-3-O-glucoside chloride] here?
**A.** 0.03

**Q.** What about the fold induction at 24 h, 10 µM (CYP1A1 mRNA; [15]) of the same compound?
**A.** 1.22 ± 0.04

**Q.** And the fold induction at 24 h, 50 µM (CYP1A1 mRNA; [15])?
**A.** 0.73 ± 0.22

**Q.** And the fold induction at 24 h, 10 µM (CYP1A1 mRNA; [16])?
**A.** 1.14 ± 0.2

**Q.** What about the fold induction at 24 h, 50 µM (CYP1A1 mRNA; [16]) of the same compound?
**A.** 1.04 ± 0.12

**Q.** And the fold induction at 24 h, 50 µM (CYP1A1 mRNA; [17])?
**A.** 0.28 ± 0.01

**Q.** Which “CYP1A1 mRNA fold induction … LH45” value [2, 9] does the source give for `C[C@@H]1O[C@@H](Oc2cc3c(O)cc(O)cc3[o+]c2-c2cc(O)c(O)c(O)c2)[C@H](O)[C@H](O)[C@H]1O.[Cl-]` [DEL-5, delphinidin-3-O-rhamnoside chloride] here?
**A.** 0.48 ± 0.01 fold

**Q.** And the “CYP1A1 mRNA fold induction … LH45” value [2, 10]?
**A.** 0.40 ± 0.09 fold

**Q.** What about the “CYP1A1 mRNA fold induction … LH46” value [2, 11] of the same compound?
**A.** 0.98 ± 0.15 fold

**Q.** And the “CYP1A1 mRNA fold induction … LH46” value [2, 12]?
**A.** 1.19 ± 0.18 fold

**Q.** What about the “CYP1A1 mRNA fold induction … LH47” value [2, 13] of the same compound?
**A.** 0.26 ± 0.01 fold

**Q.** And the “CYP1A1 mRNA fold induction … LH48” value ([2]; 24 h)?
**A.** 0.01 ± 0.01 fold

**Q.** With `COc1cc(-c2[o+]c3cc(O)cc(O)c3cc2O[C@@H]2O[C@H](CO)[C@H](O)[C@H](O)[C@H]2O)cc(OC)c1O.[Cl-]` [MAL-3, malvidin-3-O-galactoside chloride] as the compound, how does the “CYP1A1 mRNA fold induction … LH45” value [2, 9] read?
**A.** 0.12 ± 0.00 fold

**Q.** What about the “CYP1A1 mRNA fold induction … LH45” value [2, 10] of the same compound?
**A.** 0.28 ± 0.04 fold

**Q.** What about the “CYP1A1 mRNA fold induction … LH46” value [2, 11] of the same compound?
**A.** 0.87 ± 0.02 fold

**Q.** And the “CYP1A1 mRNA fold induction … LH46” value [2, 12]?
**A.** 1.32 ± 0.05 fold

**Q.** What about the “CYP1A1 mRNA fold induction … LH47” value [2, 13] of the same compound?
**A.** 0.54 ± 0.02 fold

**Q.** What about the “CYP1A1 mRNA fold induction … LH48” value ([2]; 24 h) of the same compound?
**A.** 0.33 ± 0.02 fold
